The text below walks through data of patent publication US9757320B2, “Oral care composition” (Colgate-Palmolive Company, priority 2012, dated 2017).

In one series the test system is A. viscuosus. Description: Minimum inhibitory concentration test: optical density at 610 nm of A. viscuosus in tryptic soy broth, 96 well plate. The series is classed as cell-based. Conditions: 37° C. for 18 hours. The protocol:
Stock solutions of the zinc ascorbyl phosphate of Example 1, ascorbyl phosphate, zinc oxide, and the zinc-lysine complex were each prepared in water. The concentration of active ingredient in each solution was 0.1 M. Aliquots of each test solution (200 μL) were placed in the first row of a 96 well plate. Serial dilutions of the stock solutions were prepared on the plate by mixing the stock solutions with tryptic soy broth on a 1:1 basis. The concentrations of active ingredient prepared on this basis varied from 50 mM to 0.00488 mM.
A solution of A. viscuosus with an optical density of 0.2 at 610 nm was prepared. Aliquots of the A. viscuosus solution (100 μL) were then added to each test well. Four control wells containing TSB buffer and A. viscuosus solution were prepared. Four blank wells containing TSB buffer alone were also prepared.
The plate was then incubated at 37° C. for 18 hours. The optical density of each well at 610 nm was then recorded using a plate reader.

The conditions of series [1]: cited from earlier work.
Where [2] appears, read: 50 mM active ingredient, lower reading = improved antibacterial effect.

For the compound `CCCCCCCCCCCCCCCC(=O)OC[C@H](O)[C@H]1OC(=O)C(O)=C1O` [Ascorbyl Palmitate], the optical density reading with A. viscuosus (0.005 mM active ingredient) was 0.70; with A. viscuosus (0.00977 mM active ingredient), 0.71; with A. viscuosus (0.195 mM active ingredient), 0.71; with A. viscuosus (0.391 mM active ingredient), 0.69; in the series with A. viscuosus (0.781 mM active ingredient), 0.70; with A. viscuosus (1.563 mM active ingredient), 0.70. The optical density reading with A. viscuosus (3.125 mM active ingredient) was 0.68; in the series on A. viscuosus (6.25 mM active ingredient), 0.69; in the series on A. viscuosus (12.5 mM active ingredient), 0.72; with A. viscuosus (25 mM active ingredient), 0.68; in the series on A. viscuosus (setting [2]), 0.64.
`[O]=[Zn]` [Zinc Oxide, zinc oxide]: the optical density reading with A. viscuosus (0.005 mM active ingredient) turned out to be 0.68; in the series on A. viscuosus (0.00977 mM active ingredient), 0.68; in the series with A. viscuosus (0.195 mM active ingredient) it was 0.67; with A. viscuosus (0.391 mM active ingredient), 0.66; in the series with A. viscuosus (0.781 mM active ingredient) it was 0.60; in the series on A. viscuosus (1.563 mM active ingredient), 0.45. In addition, the optical density reading in the series with A. viscuosus (3.125 mM active ingredient) came to 0.33; with A. viscuosus (6.25 mM active ingredient), 0.29; in the series with A. viscuosus (12.5 mM active ingredient), 0.40; in the series with A. viscuosus (25 mM active ingredient), 0.65; in the series with A. viscuosus (setting [2]), 1.55. For the same compound, the “solubility under aqueous conditions” value in series [1] is “poorly soluble”.
For zinc-lysine complex, the optical density reading in the series with A. viscuosus (0.005 mM active ingredient) is reported as 0.68; with A. viscuosus (0.00977 mM active ingredient), 0.71; with A. viscuosus (0.195 mM active ingredient), 0.69; in the series with A. viscuosus (0.391 mM active ingredient) it was 0.65; in the series on A. viscuosus (0.781 mM active ingredient), 0.58; in the series on A. viscuosus (1.563 mM active ingredient), 0.44. For the same compound, the optical density reading in the series on A. viscuosus (3.125 mM active ingredient) came out at 0.34; in the series on A. viscuosus (6.25 mM active ingredient), 0.15; with A. viscuosus (12.5 mM active ingredient), 0.20; in the series with A. viscuosus (25 mM active ingredient) it was 0.35; with A. viscuosus (setting [2]) it was 0.56.
